For the assay, the target named is T1, recombinant human NK3 receptor (Homo sapiens, UniProt P29371).
T1 construct: expressed in transfected cells; host or cells: HEK293 cells, transient expression; membranes
T1 sequence (P29371 1-465): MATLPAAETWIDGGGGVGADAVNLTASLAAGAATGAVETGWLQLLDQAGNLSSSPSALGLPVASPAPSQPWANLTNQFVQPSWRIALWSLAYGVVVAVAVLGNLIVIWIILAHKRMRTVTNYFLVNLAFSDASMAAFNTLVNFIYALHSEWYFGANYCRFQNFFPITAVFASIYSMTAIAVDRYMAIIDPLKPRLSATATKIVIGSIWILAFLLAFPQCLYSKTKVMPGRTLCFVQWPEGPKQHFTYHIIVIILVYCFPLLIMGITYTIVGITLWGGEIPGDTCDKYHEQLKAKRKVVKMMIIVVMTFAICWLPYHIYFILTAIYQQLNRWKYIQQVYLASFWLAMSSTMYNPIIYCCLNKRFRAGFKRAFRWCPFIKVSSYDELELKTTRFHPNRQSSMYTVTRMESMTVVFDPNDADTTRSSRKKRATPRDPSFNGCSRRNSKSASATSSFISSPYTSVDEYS
Kind of assay: [3H]SR142801 competition binding assay. Particulars: membranes from HEK293 cells transiently expressing recombinant human NK3 receptor; [3H]SR142801 radioligand; Ki by Cheng-Prussoff. As to the method:
[^3H]SR142801 Competition Binding Assay
hNK3 receptor binding experiment were performed using [^3H]SR142801 (Catalog No. TRK1035, specific activity: 74.0 Ci/mmol, Amersham, GE Healthcare UK limited, Buckinghamshire, UK) and membrane isolated from HEK293 cells transiently expressing recombinant human NK3 receptor. After thawing, the membrane homogenates were centrifuged at 48,000×g for 10 min at 4° C., the pellets were resuspended in the 50 mM Tris-HCl, 4 mM MnCl2, 1 μM phosphoramidon, 0.1% BSA binding buffer at pH 7.4 to a final assay concentration of 5 μg protein/well. For inhibition experiments, membranes were incubated with [^3H]SR142801 at a concentration equal to KD value of radioligand and 10 concentrations of the inhibitory compound (0.0003-10 μM) (in a total reaction volume of 500 μl) for 75 min at room temperature (RT). At the end of the incubation, membranes were filtered onto unit filter (96-well white microplate with bonded GF/C filter preincubated 1 h in 0.3% PEI+0.3% BSA, Packard BioScience, Meriden, Conn.) with a Filtermate 196 harvester (Packard BioScience) and washed 4 times with ice-cold 50 mM Tris-HCl, pH 7.4 buffer. Nonspecific binding was measured in the presence of 10 μM SB222200 for both radioligands. The radioactivity on the filter was counted (5 min) on a Packard Top-count microplate scintillation counter with quenching correction after addition of 45 μl of microscint 40 (Canberra Packard S. A., Zürich, Switzerland) and shaking for 1 h. Inhibition curves were fitted according to the Hill equation: y=100/(1+(x/IC50)^nH), where nH=slope factor using Excel-fit 4 software (Microsoft). IC50 values were derived from the inhibition curve and the affinity constant (Ki) values were calculated using the Cheng-Prussoff equation Ki=IC50/(1+[L]/KD) where [L] is the concentration of radioligand and KD is its dissociation constant at the receptor, derived from the saturation isotherm. All experiments were performed in duplicate and the mean±standard error (SEM) of the individual Ki values was calculated.

Regarding `C[C@@H]1CN(C(=O)N2C[C@@H]([C@@H](C)Oc3ccc(C(F)(F)F)cc3)[C@H](c3ccc(Cl)c(Cl)c3)C2)CCN1S(C)(=O)=O` (mixture of isomers) [Example 27, {(3RS,4SR)-3-(3,4-Dichloro-phenyl)-4-[(RS)-1-(4-trifluoromethyl-phenoxy)-ethyl]-pyrrolidin-1-yl}-((R)-4-methanesulfonyl-3-methyl-piperazin-1-yl)-methanone], the Ki is 9.6 nM.
For `C[C@@H](Oc1ccc(Cl)cn1)[C@@H]1CN(C(=O)N2CC3(COC3)C2)C[C@H]1c1ccc(Cl)c(Cl)c1` (racemic) [Example 61, [(3SR,4RS)-3-[(RS)-1-(5-Chloro-pyridin-2-yloxy)-ethyl]-4-(3,4-dichloro-phenyl)-pyrrolidin-1-yl]-(2-oxa-6-aza-spiro[3.3]hept-6-yl)-methanone], the inhibition constant Ki was 39 nM.
In the case of `C[C@@H](Oc1ccc(C(F)(F)F)cc1)[C@@H]1CN(C(=O)N2CCN(S(C)(=O)=O)CC2)C[C@H]1c1ccc(Cl)c(Cl)c1` (racemic) [Example 16, {(3RS,4SR)-3-(3,4-Dichloro-phenyl)-4-[(RS)-1-(4-trifluoromethyl-phenoxy)-ethyl]-pyrrolidin-1-yl}-(4-methanesulfonyl-piperazin-1-yl)-methanone] it was 28.8 nM; in that of `C[C@@H](Oc1ccc(C(F)(F)F)cc1)[C@@H]1CN(C(=O)CN2CCC(N(C)S(C)(=O)=O)CC2)C[C@H]1c1ccc(Cl)c(Cl)c1` (racemic) [Example 20, N-[1-(2-{(3RS,4SR)-3-(3,4-Dichloro-phenyl)-4-[(RS)-1-(4-trifluoromethyl-phenoxy)-ethyl]-pyrrolidin-1-yl}-2-oxo-ethyl)-piperidin-4-yl]-N-methyl-methanesulfonamide], 59.5 nM; in that of `C[C@@H](Oc1ccc(F)c(Cl)c1)[C@@H]1CN(C(=O)N2CCN(S(C)(=O)=O)CC2)C[C@H]1c1ccc(Cl)c(Cl)c1` (racemic) [Example 41, [(3SR,4RS)-3-[(RS)-1-(3-Chloro-4-fluoro-phenoxy)-ethyl]-4-(3,4-dichloro-phenyl)-pyrrolidin-1-yl]-(4-methanesulfonyl-piperazin-1-yl)-methanone], 49 nM.
As for `C[C@@H](Oc1ccc(Cl)c(Cl)c1)[C@@H]1CN(C(=O)N2CCN(S(C)(=O)=O)CC2)C[C@H]1c1ccc(Cl)c(Cl)c1` (racemic) [Example 30, [(3SR,4RS)-3-[(RS)-1-(3,4-Dichloro-phenoxy)-ethyl]-4-(3,4-dichloro-phenyl)-pyrrolidin-1-yl]-(4-methanesulfonyl-piperazin-1-yl)-methanone], the inhibitory constant (Ki) was determined as 79.6 nM.
In the case of `C[C@@H](Oc1ccc(C(F)(F)F)cc1)[C@@H]1CN(C(=O)N2CCC(N(C)S(C)(=O)=O)CC2)C[C@H]1c1ccc(Cl)c(Cl)c1` (racemic) [Example 18, N-(1-{(3RS,4SR)-3-(3,4-Dichloro-phenyl)-4-[(RS)-1-(4-trifluoromethyl-phenoxy)-ethyl]-pyrrolidine-1-carbonyl}-piperidin-4-yl)-N-methyl-methanesulfonamide], the Ki amounted to 77.9 nM.
Take `C[C@H](Oc1ccc(C#N)cn1)[C@H]1CN(C(=O)N2CCC(C#N)CC2)C[C@@H]1c1ccc(Cl)c(Cl)c1` (racemic) [Example 71]: the Ki is 8.7 nM.
In the case of `C[C@@H](Oc1ccc(Cl)cn1)[C@@H]1CN(C(=O)N2CCN(CCN(C)C)CC2)C[C@H]1c1ccc(Cl)c(Cl)c1` (racemic) [Example 56, [(3SR,4RS)-3-[(RS)-1-(5-Chloro-pyridin-2-yloxy)-ethyl]-4-(3,4-dichloro-phenyl)-pyrrolidin-1-yl]-[4-(2-dimethylamino-ethyl)-piperazin-1-yl]-methanone] it was 2.6 nM.
For `C[C@H](Oc1ccc(Cl)cc1)[C@@H]1CN(C(=O)N2CCN(S(C)(=O)=O)CC2)C[C@H]1c1ccc(Cl)c(Cl)c1` (racemic) [Example 48, [(3SR,4RS)-3-[(SR)-1-(4-Chloro-phenoxy)-ethyl]-4 (3,4-dichloro-phenyl)-pyrrolidin-1-yl]-(4-methanesulfonyl-piperazin-1-yl)-methanone] the value was 68 nM.
In the case of `C[C@@H]1CN(C(=O)N2C[C@@H]([C@@H](C)Oc3ccc(Cl)cn3)[C@H](c3ccc(Cl)c(Cl)c3)C2)CCN1S(C)(=O)=O` (mixture of isomers) [Example 54, [(3SR,4RS)-3-[(RS)-1-(5-Chloro-pyridin-2-yloxy)-ethyl]-4-(3,4-dichloro-phenyl)-pyrrolidin-1-yl]-((R)-4-methanesulfonyl-3-methyl-piperazin-1-yl)-methanone] it was 2 nM; in that of `C[C@@H](Oc1ccc(C#N)cc1)[C@@H]1CN(C(=O)N2CCN(S(C)(=O)=O)CC2)C[C@H]1c1ccc(Cl)c(Cl)c1` (racemic) [Example 33, 4-{(RS)-1-[(3SR,4RS)-4-(3,4-Dichloro-phenyl)-1-(4-methanesulfonyl-piperazine-1-carbonyl)-pyrrolidin-3-yl]ethoxy}-benzonitrile], 75.6 nM; in that of `C[C@H](Oc1ccc(C(F)(F)F)cn1)[C@H]1CN(C(=O)N2CC3CC2CO3)C[C@@H]1c1ccc(Cl)c(Cl)c1` (mixture of isomers) [Example 73, {(3SR,4RS)-3-(3,4-Dichloro-phenyl)-4-[(SR)-1-(5-trifluoromethyl-pyridin-2-yloxy)-ethyl]-pyrrolidin-1-yl}-(2-oxa-5-aza-bicyclo[2.2.1]hept-5-yl)-methanone], 93 nM.
Consider `C[C@H](Oc1ccc(F)cn1)[C@@H]1CN(C(=O)N2CCN(S(C)(=O)=O)CC2)C[C@H]1c1ccc(Cl)c(Cl)c1` (racemic) [Example 57, {(3RS,4SR)-3-(3,4-Dichloro-phenyl)-4-[(SR)-1-(5-fluoro-pyridin-2-yloxy)-ethyl]-pyrrolidin-1-yl}-(4-methanesulfonyl-piperazin-1-yl)-methanone], for which the inhibitory constant (Ki) amounted to 64.7 nM.
Consider `C[C@H](Oc1ccc(F)cc1)[C@@H]1CN(C(=O)N2CCN(S(C)(=O)=O)CC2)C[C@H]1c1ccc(Cl)c(Cl)c1` (racemic) [Example 46, {(3RS,4SR)-3-(3,4-Dichloro-phenyl)-4-[(SR)-1-(4-fluoro-phenoxy)-ethyl]-pyrrolidin-1-yl}-(4-methanesulfonyl-piperazin-1-yl)-methanone], for which the Ki was determined as 49.7 nM.
For `CC(=O)NC1CCN(CC(=O)N2C[C@@H]([C@@H](C)Oc3ccc(C(F)(F)F)cc3)[C@H](c3ccc(Cl)c(Cl)c3)C2)CC1` (racemic) [Example 25, N-[1-(2-{(3RS,4SR)-3-(3,4-Dichloro-phenyl)-4-[(RS)-1-(4-trifluoromethyl-phenoxy)-ethyl]-pyrrolidin-1-yl}-2-oxo-ethyl)-piperidin-4-yl]-acetamide] the value was 59.7 nM.
For `C[C@@H](Oc1ccc(C(F)(F)F)cc1)[C@@H]1CN(C(=O)N2CCN(CCN(C)C)CC2)C[C@H]1c1ccc(Cl)c(Cl)c1` (racemic) [Example 52], the Ki came to 42.5 nM.
Regarding `C[C@@H](Oc1ccc(Cl)cn1)[C@@H]1CN(C(=O)CN2CC3CC2CO3)C[C@H]1c1ccc(Cl)c(Cl)c1` (stereo partly drawn) [Example 68, 1-[(3S,4R)-3-[(R)-1-(5-Chloro-pyridin-2-yloxy)-ethyl]-4-(3,4-dichloro-phenyl)-pyrrolidin-1-yl]-2-(2-oxa-5-aza-bicyclo[2.2.1]hept-5-yl)-ethanone], the Ki came to 27 nM.
As to `C[C@H](Oc1ccc(C#N)cn1)[C@H]1CN(C(=O)CN2CCC(C#N)CC2)C[C@@H]1c1ccc(Cl)c(Cl)c1` (racemic) [Example 70, 6-{(SR)-1-[(3RS,4SR)-1-[2-(4-Cyano-piperidin-1-yl)-acetyl]-4-(3,4-dichloro-phenyl)-pyrrolidin-3-yl]-ethoxy}-nicotinonitrile], the inhibitory constant (Ki) was determined as 86 nM.
For `C[C@@H](Oc1ccc(Cl)cc1)[C@@H]1CN(C(=O)N2CCN(S(C)(=O)=O)CC2)C[C@H]1c1ccc(Cl)c(Cl)c1` (mixture of isomers) [Example 36, [(3SR,4RS)-3-[(R)-1-(4-Chloro-phenoxy)-ethyl]-4-(3,4-dichloro-phenyl)-pyrrolidin-1-yl]-(4-methanesulfonyl-piperazin-1-yl)-methanone], the inhibition constant Ki worked out at 21.1 nM.

For orientation: Ki means a measure of affinity in units of concentration, obtained from inhibition or displacement.

The record behind these values is US7812021B2, “Pyrrolidine aryl-ether as NK3 receptor antagonists” (Hoffmann-La Roche Inc., priority 2007, dated 2010).
